Here are results for 10 compounds from patent US4363805A, “Aminodesoxy-1.4;3.6-dianhydrohexitol nitrates and pharmaceutical composition” (Firma Willmar Schwabe, priority 1980, dated 1982).

A value given as a limit tells only on which side of the number the result lay.

Data set [1] has as its system mongrel cats. As to the kind of experiment: Inotropic and heart-circulatory effectiveness on narcotised cats, intravenous. The note with it: 6 animals. Type of data set: in vivo, cat.
For data set [2], the system named is female NMRI-albino mice. Briefly: Acute toxicity, intravenous, mice. Type of data set: in vivo. The settings on record: within 24 hours.
A short description of data set [3]: Acute toxicity, intravenous, mice. Type of data set: in vivo. The note with it: mouse, in vivo; intravenous, within 24 hours; read-out: Evaluated LD50-range.
Where [4] appears, read: 0.25 mg/kg i.v., before administration.

The LD50 is the dose at which mortality reaches 50%. Regarding `O=[N+]([O-])O[C@H]1CO[C@H]2[C@@H]1OC[C@@H]2NCCCCc1ccccc1` [Example 29, 5-(4-Phenylbutylamino)-5-desoxy-1.4;3.6-dianhydro-L-iditol 2-nitrate], in data set [1] (setting [4]), the blood pressure before is recorded as 106.8 mm.Hg, the “dp/dt (inotropism) before” value is recorded as 6480 mm.Hg/sec and the heart frequency before was 209.0 min⁻¹. For the same compound, in data set [1] (0.25 mg/kg i.v.), the “blood pressure WD” value amounted to 3.2 min, the blood pressure after was 91.3 mm.Hg, the “blood pressure Δ” value is listed as -15.5 mm.Hg and the “dp/dt (inotropism) after” value stood at 6000 mm.Hg/sec. In data set [1] (0.25 mg/kg i.v.), the “dp/dt (inotropism) Δ” value is listed as -480 mm.Hg/sec, the “dp/dt WD” value was 1.6 min, the heart frequency after was 204.3 min⁻¹ and the “heart frequency Δ” value is -4.7 min⁻¹. Besides, in data set [1] (0.50 mg/kg i.v.), the “blood pressure WD” value was 4.1 min, the blood pressure after is recorded as 91.3 mm.Hg, the “blood pressure Δ” value is -22.0 mm.Hg and the “dp/dt (inotropism) after” value was 6000 mm.Hg/sec. Besides, in data set [1] (0.50 mg/kg i.v.), the “dp/dt (inotropism) Δ” value is on record as -1040 mm.Hg/sec, the “dp/dt WD” value worked out at 8.2 min, the heart frequency after is 204.7 min⁻¹ and the “heart frequency Δ” value is -7.3 min⁻¹. Moreover, in data set [1] (1.00 mg/kg i.v.), the “blood pressure WD” value stood at 11.2 min, the blood pressure after was found to be 90.7 mm.Hg, the “blood pressure Δ” value is on record as -34.0 mm.Hg and the “dp/dt (inotropism) after” value was 5000 mm.Hg/sec. Further, in data set [1] (1.00 mg/kg i.v.), the “dp/dt (inotropism) Δ” value is recorded as -2360 mm.Hg/sec, the “dp/dt WD” value came to 25.5 min, the heart frequency after came to 197.7 min⁻¹ and the “heart frequency Δ” value was -11.7 min⁻¹. In data set [1] (2.50 mg/kg i.v.), the “blood pressure WD” value is given as above 10 min, the blood pressure after is given as 80.8 mm.Hg, the “blood pressure Δ” value is on record as -48.7 mm.Hg and the “dp/dt (inotropism) after” value is listed as 3920 mm.Hg/sec. In addition, in data set [1] (2.50 mg/kg i.v.), the “dp/dt (inotropism) Δ” value is -3580 mm.Hg/sec, the “dp/dt WD” value is given as above 10 min, the heart frequency after is 182.0 min⁻¹ and the “heart frequency Δ” value was -23.0 min⁻¹. Besides, in data set [2] (50 mg/kg i.v.), the Frequency of death is given as 5/6. Further, the Frequency of death in data set [2] (100 mg/kg i.v.) is 5/6. Moreover, in data set [2] (200 mg/kg i.v.), the Frequency of death is given as 3/3. Besides, the LD50 at 24 h in data set [3] is below 50 mg/kg.
Regarding `COc1ccccc1OCC(O)CN[C@H]1CO[C@H]2[C@@H]1OC[C@@H]2O[N+](=O)[O-]` (stereo partly drawn) [Example 46, 5-[2-Hydroxy-3-(2-methoxyphenoxy)-propylamino]-5-desoxy-1.4;3.6-dianhydro-L-iditol 2-nitrate], the Frequency of death in data set [2] (100 mg/kg i.v.) was 0/3; in data set [2] (200 mg/kg i.v.), 2/3. Besides, the LD50 at 24 h in data set [3] lay within 100 to 200 mg/kg.
Take `O=[N+]([O-])O[C@H]1CO[C@H]2[C@@H]1OC[C@@H]2NCCCOc1cccc(C(F)(F)F)c1` [Example 58, 5-[3-(3-Trifluoromethylphenoxy)-propylamino]-5-desoxy-1.4;3.6-dianhydro-L-iditol 2-nitrate]: the Frequency of death in data set [2] (100 mg/kg i.v.) is 7/12. Also, the LD50 at 24 h in data set [3] was around 100 mg/kg.
With `COc1cccc(OC)c1OCCCN[C@H]1CO[C@H]2[C@@H]1OC[C@@H]2O[N+](=O)[O-]` [Example 65, 5-[3-(2,6-Dimethoxyphenoxy)-propylamino]-5-desoxy-1.4;3.6-dianhydro-L-iditol 2-nitrate], the results for the Frequency of death in data set [2] (50 mg/kg i.v.), in data set [2] (100 mg/kg i.v.) and in data set [2] (200 mg/kg i.v.) were 4/10, 10/10 and 3/3, respectively. The LD50 at 24 h in data set [3] is around 50 mg/kg.
For `COc1cc(OC)cc(OCCCN[C@H]2CO[C@H]3[C@@H]2OC[C@@H]3O[N+](=O)[O-])c1` [Example 66, 5-[3-(3,5-Dimethoxyphenoxy)-propylamino]-5-desoxy-1.4;3.6-dianhydro-L-iditol 2-nitrate], the figures for the Frequency of death in data set [2] (100 mg/kg i.v.) and in data set [2] (200 mg/kg i.v.) were 2/10 and 3/3, respectively. Further, the LD50 at 24 h in data set [3] fell in the range of 100 to 200 mg/kg.
Turning to `COc1cccc(OCCCN[C@H]2CO[C@H]3[C@@H]2OC[C@@H]3O[N+](=O)[O-])c1OC` [Example 67, 5-[3-(2,3-Dimethoxyphenoxy)-propylamino]-5-desoxy-1.4;3.6-dianhydro-L-iditol 2-nitrate], the Frequency of death in data set [2] (50 mg/kg i.v.) is recorded as 0/10; in data set [2] (100 mg/kg i.v.), 3/3; in data set [2] (200 mg/kg i.v.), 3/3. Moreover, the LD50 at 24 h in data set [3] was around 70 mg/kg.
For the compound `O=[N+]([O-])O[C@H]1CO[C@H]2[C@@H]1OC[C@@H]2NCCCOc1ccc(Cl)cc1` [Example 68, 5-[3-(4-Chlorophenoxy)-propylamino]-5-desoxy-1.4;3.6-dianhydro-L-iditol 2-nitrate], the Frequency of death in data set [2] (100 mg/kg i.v.) is 4/9. In data set [3], the 50% lethal dose (LD50) at 24 h was around 100 mg/kg.
For the compound `O=[N+]([O-])O[C@H]1CO[C@H]2[C@@H]1OC[C@@H]2NCCCOc1ccccc1Cl` [Example 69, 5-[3-(2-Chlorophenoxy)-propylamino]-5-desoxy-1.4;3.6-dianhydro-L-iditol 2-nitrate], the Frequency of death in data set [2] (50 mg/kg i.v.) is 0/10; in data set [2] (100 mg/kg i.v.), 3/6. The LD50 at 24 h in data set [3] lay in the range of 50 to 100 mg/kg.
On to `O=[N+]([O-])O[C@H]1CO[C@H]2[C@@H]1OC[C@@H]2NCCCOc1ccc(Cl)cc1Cl` [Example 72, 5-[3-(2,4-Dichlorophenoxy)-propylamino]-5-desoxy-1.4;3.6-dianhydro-L-iditol2-nitrate], for which, in data set [2] (100 mg/kg i.v.), the Frequency of death was 0/6. Also, the LD50 at 24 h in data set [3] was above 100 mg/kg.
For `CC(=O)Nc1ccc(OCCCN[C@H]2CO[C@H]3[C@@H]2OC[C@@H]3O[N+](=O)[O-])cc1` [Example 73, 5-[3-(4-Acetamidophenoxy)-propylamino]-5-desoxy-1.4;3.6-dianhydro-L-iditol 2-nitrate], the Frequency of death in data set [2] (100 mg/kg i.v.) and in data set [2] (200 mg/kg i.v.) was 0/3 each time. Also, in data set [3], the LD50 at 24 h is above 200 mg/kg.
